Experimental findings from publication PMC9119314 (Frontiers in Pharmacology, 2022) are described below.

The subject of one experiment is P. falciparum K1. Nature of the experiment: In vitro antiplasmodial activity, P. falciparum K1 (lactate dehydrogenase assay). The note with it: for IC50: Plasmodium falciparum, chloroquine-resistant strain K1, 48 h, mean ± SE, read-out: Activity against P. falciparum K1, IC50. It is filed as cell-based, Plasmodium falciparum. The protocol:
P. falciparum (K1 clone) was maintained in human erythrocytes prepared from the donated blood samples (blood groups unknown, Ethical Tissue, University of Bradford), suspended in the RPMI 1640 medium as previously described ([Wright et al., 2001]), except that serum was replaced with Albumax II, [5% (^w/v)]. […] Twofold serial dilutions were made in 96-well microtiter plates in duplicate, and infected erythrocytes were added to give a final volume of 100 µL with 2.5% hematocrit and 1% parasitemia. Chloroquine diphosphate was used as a positive control, and uninfected and infected erythrocytes without compounds were included in each test. The plates were placed into a modular incubator; gassed with 93% nitrogen, 3% oxygen, and 4% carbon dioxide; and incubated at 37°C for 48 h. The parasite growth was assessed by measuring lactate dehydrogenase activity as described by [Makler et al. (1993)]. The reagent used contained the following in each mL: acetylpyridine adenine dinucleotide (APAD), 0.74 mg; lithium lactate, 19.2 mg; diaphorase, 0.1 mg; Triton X-100, 2 μL; nitroblue tetrazolium, 1 mg; and phenazine ethosulphate, 0.5 mg. Fifty microliter of this reagent was added to each well and mixed; plates were incubated for 15 min at 37°C. The optical densities were read at 550 nm using an Azure 96-well microplate reader (Azure Biosystems Inc.), and % inhibition of growth was calculated by comparison with the control values. IC50 values were determined using linear regression analysis (Microsoft Excel). A minimum of three separate determinations was carried out for each compound.

A further experiment has as its system P. falciparum 3D7. Nature of the experiment: In vitro antiplasmodial activity, P. falciparum 3D7 (SYBR Green I). The class given is cell-based. The conditions noted are these: Plasmodium falciparum; chloroquine-sensitive strain 3D7, 48 h; read-out: Activity against P. falciparum 3D7, IC50. The protocol: P. falciparum (3D7 clone) and P. knowlesi (A1-H.1 clone) were maintained in culture in RPMI 1640 supplemented with 25 mM HEPES, 25 mM NaHCO3, 10 mM D-glucose, 2 mM L-glutamine, 50 mg/L hypoxanthine, 25 mg/L gentamicin sulfate, 5 g/L Albumax II, and 10% (v/v) equine serum (Thermo Fisher Scientific, 26-050-088). The P. falciparum (3D7) and P. knowlesi (A1-H.1) parasites were grown in human A^+ red blood cells (National Health Blood and Transplant, United Kingdom). The parasites were incubated in sealed flasks at 37°C under a culture gas mixture of 96% N2, 3% CO2, and 1% O2. ([van Schalkwyk et al., 2019]). The compounds were initially dissolved in DMSO prior to diluting in RPMI. All experiments were initiated using unsynchronized parasites with both the parasitemia and hematocrit set to 1%. Drug susceptibility assays were set up in 96-well, flat-bottom microplates in a final volume of 200 μL, as described previously ([van Schalkwyk et al., 2017]). The controls were included for the background fluorescence (0% viability; parasites exposed to a supralethal 10 μM chloroquine concentration) and 100% growth (parasites in drug-free wells). The plates were incubated for one complete life cycle (27 h for P. knowlesi or 48 h for P. falciparum in vitro) at 37°C in a modular incubation chamber (Billups-Rothenburg Inc.) under the culture gas. Upon termination of the assay, the plates were stored at −20°C overnight. The SYBR Green I fluorescent method was used to measure parasite survival ([Bennett et al., 2004]; [Smilkstein et al., 2004]). After the microplates were thawed, 100 μL from each well was transferred into a duplicate plate. To this was added 100 μL of SYBR green solution [SYBR Green I (Thermo Fisher Scientific, S7563), diluted 1:5000 in a lysis buffer made of 20 mM Tris, 5 mM EDTA, 0.008% (w/v) saponin, 0.08% (v/v) Triton X-100, pH 7.5]. The plates were stored in the dark for 1 h before fluorescence was read at a 490 nm excitation wavelength and a 520 nm emission wavelength on a Spectramax M3 microplate reader (Molecular Devices) ([van Schalkwyk et al., 2017]). The background fluorescence (wells with parasites at 0% viability) was subtracted from all drug assay wells, and the parasite proliferation was determined as a percentage of the fluorescence in the drug-free control wells.

The next experiment relates to A2780/ADR cells. Description: Chemosensitivity MTT assay, doxorubicin-resistant A2780/ADR. The class given is cell-based. The note with it: Homo sapiens, 96 h, ± SE, read-out: Activity against A2780/ADR cells, IC50. As to the method:
(§1) A modified MTT assay was used ([Shnyder et al., 2008]). Cells (2 × 10^4/ml) were inoculated into each well of a 96-well plate and incubated for 24 h at 37°C in a humidified atmosphere containing 5% CO2. Compounds were then added at a range of concentrations to each well, and the plates were then incubated for a further 96 h. After 96 h, the culture medium was removed and 200 μL of 0.5 mg ml^–1 MTT solution (Sigma) in the complete medium was added to each well. Following a further 4 h incubation, the solution was removed from each well and 150 μL of DMSO was added to solubilize the formazan crystals resulting from MTT conversion. The absorbance values for the resulting solutions were read at 540 nm on an Azure 96-well microplate reader (Azure Biosynstems Inc.), and the cell survival was calculated as the absorbance of treated cells divided by the control.
(In general: Tetrazolium dyes change colour on reduction, which living cells bring about.)

The next experiment deals with A2780/cis cells. Nature of the experiment: Chemosensitivity MTT assay, cisplatin-resistant A2780/CIS. It is filed as cell-based, human. The note with it: Homo sapiens, A2780cis, 96 h, ± SE, read-out: Activity against A2780/cis cells, IC50. The protocol: as §1, with “The chemosensitivity of compounds 3–6 was assessed in the wild-type immortalized human ovarian adenocarcinoma cell line A2780 and its daughter cell lines, which are resistant to the standard cancer chemotherapeutics doxorubicin (A2780/ADR) and cisplatin (A2780/CIS, all cell lines from ECACC, Salisbury, United Kingdom). A modified” for “A modified”

Take `C[n+]1c2ccccc2cc2[n-]c3c(Br)cc(Br)cc3c21` [Compound 4, 7,9-Dibromocryptolepine]: the IC50 worked out at 0.44 ± 0.09 µM in the experiment with P. falciparum K1, 0.76 ± 0.06 µM in the experiment on P. falciparum 3D7, 0.31 ± 0.06 µM in the experiment with A2780/ADR cells and 0.58 ± 0.1 µM with A2780/cis cells. In the experiment on P. falciparum K1, the “Selectivity index (SI), P. falciparum K1 with respect to Hep G cells” value was 15.4.
The corresponding values for `C[n+]1c2ccccc2cc2[n-]c3ccc(I)cc3c21` [Compound 5, 7-iodocryptolepine] are 0.16 ± 0.03 µM, 0.092 ± 0.02 µM, 0.18 ± 0.01 µM, 0.31 ± 0.19 µM and 41.9.
Turning to `C[n+]1c2ccccc2cc2[n-]c3c(I)cc(I)cc3c21` [Compound 6, 7,9-diiodocryptolepine], the IC50 with P. falciparum K1 is 0.25 ± 0.04 µM; with P. falciparum 3D7, 0.66 ± 0.06 µM; in the experiment with A2780/ADR cells, 0.18 ± 0.02 µM; with A2780/cis cells, 0.28 ± 0.05 µM. For the same compound, in the experiment with P. falciparum K1, the “Selectivity index (SI), P. falciparum K1 with respect to Hep G cells” value is 113.
